The assay addresses T1, BLK (Homo sapiens, UniProt P51451).
T1 construct: purchased Thermo Fisher Scientific (Life Technologies) SelectScreen
In words: SelectScreen Z'LYTE. It counts as biochemical. Summed up:
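Compound tested in SelectScreen activity assays, Z'LYTE for CSF1R, CDK1/cyclin B and MAP2K6 and Adapta for CAMK1. ATP for CAMK1 was listed as 10, and Km app was used for CSF1R. Results are expressed in percent.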

T1 sequence (P51451 whole entry): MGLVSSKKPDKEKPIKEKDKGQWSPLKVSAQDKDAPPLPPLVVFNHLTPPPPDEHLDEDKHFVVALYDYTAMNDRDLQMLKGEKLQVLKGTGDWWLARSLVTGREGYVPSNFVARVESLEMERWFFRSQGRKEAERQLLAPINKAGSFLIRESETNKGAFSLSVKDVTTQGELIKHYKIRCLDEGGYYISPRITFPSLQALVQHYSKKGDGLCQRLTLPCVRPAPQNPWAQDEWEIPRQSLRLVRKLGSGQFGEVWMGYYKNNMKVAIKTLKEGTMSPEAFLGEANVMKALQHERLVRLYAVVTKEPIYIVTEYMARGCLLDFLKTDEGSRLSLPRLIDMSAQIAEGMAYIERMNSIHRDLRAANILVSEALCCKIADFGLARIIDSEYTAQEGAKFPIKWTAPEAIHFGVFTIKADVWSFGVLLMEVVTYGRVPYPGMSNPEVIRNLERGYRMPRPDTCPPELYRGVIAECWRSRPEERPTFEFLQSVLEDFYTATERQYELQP

As to `CN(C(=O)CN1CCOCC1)c1ccc2sc3c(-c4cccc5c(=O)cc(N6CC7CCC(C6)O7)oc45)cccc3c2c1` [NU5455], the inhibition at 1 µM was -8.9%.

What is called inhibition is the drop in the measured response relative to a control, in per cent.

(Values after PMC6934184, “Selective DNA-PKcs inhibition extends the therapeutic index of localized radiotherapy and chemotherapy” (The Journal of Clinical Investigation, 2019).)
